Eight compounds from patent publication US4757133A, “Physiologically active peptide” (Eisai Co., Ltd., priority 1986, dated 1988) can be followed below.

Peptide text beside a SMILES is read from it.

The test system of this experiment is smooth muscle of a bronchus. The experiment can be described thus: Relaxation of muscle of bronchus removed from guinea pig (histamine-contracted tracheal chain, four-point assay). The note with it: isolated guinea pig trachea chain, 6.5×10^-6 M histamine in Krebs solution at 37° C.; samples at 10^-5 M; area value of VIP-NH2 taken as 100%. From the text: A. Determination on Relaxation of Muscle of Bronchus Removed from Guinea Pig:
The juglar vein of a male guinea pig weighing 300 g or more is cut, causing the guinea pig to be bled to death. The guinea pig undergoes thoracotomy. Immediately after the thoracotomy, 3 cm of the trachea is taken out. The trachea is immediately put in a Krebs solution. It is then cut into seven equal rings, and the cartilages are connected to one another with a cotton yarn to form a chain. Subsequently, the smooth muscle parts and cartilages opposite them are cut, so that the smooth muscle parts can be connected to one another. The preparation thus prepared is placed in an isothermic glass cell having an internal capacity of about 7 ml and suspended from above. The lower part of the preparation is fixed, while the upper part is connected to an isometric transducer, to which 0.5 g of a load has been applied, in order to determine the relaxation reaction. Sufficient amounts of 95% oxygen and 5% carbon dioxide gas are blown into the preparation. Further, a Krebs solution of 37° C. containing 6.5×10^-6 M histamine is dropped on the preparation from above at a flow rate of 3.3 ml/min. The relaxation reaction takes place to an extent proportional to the amount of a sample added to the dropped solution. By utilizing this relationship, the relaxation activity against bronchial smooth muscle with respect to the substance of the present invention is compared with that of VIP-NH2. VIP-NH2 is used at a concentration of 10^-5 M and dropped in amounts of 40 μl and 80 μl. The substance of the present invention is also used at a concentration of 10^-5 M and dropped in amounts of 10 μl and 20 μl. The value of the area (height×time) in relaxation of each case is determined. The specific activities are obtained by taking the area value of VIP-NH2 as 100% and determining the relative ratio of the area value of each case. Thus, the relaxation reactions are compared by the four-point assay method, with respect to the above-mentioned determination method, reference may be made to the following articles (e) and (f):
(e) W. L. M. Perry, Pharmacological Experiments on Isolated Preparations: E & S Livingstone LTD. 1968; and
(f) Castillo, De Beer, J. Phamac. Exp. Ther. 90, 104 (1947).
As to `CC[C@H](C)[C@H](NC(=O)[C@H](CO)NC(=O)[C@H](CC(N)=O)NC(=O)[C@H](CC(C)C)NC(=O)[C@H](Cc1ccc(O)cc1)NC(=O)[C@H](CCCCN)NC(=O)[C@H](CCCCN)NC(=O)[C@@H](NC(=O)[C@H](C)NC(=O)[C@H](CC(C)C)NC(=O)[C@H](CCC(N)=O)NC(=O)[C@H](CCCCN)NC(=O)[C@H](CCCNC(=N)N)NC(=O)[C@H](CC(C)C)NC(=O)[C@H](CCCNC(=N)N)NC(=O)[C@@H](NC(=O)[C@H](Cc1ccc(O)cc1)NC(=O)[C@H](CC(N)=O)NC(=O)[C@H](CC(=O)O)NC(=O)[C@@H](NC(=O)[C@H](Cc1ccccc1)NC(=O)[C@@H](NC(=O)[C@H](C)NC(=O)[C@H](CC(=O)O)NC(=O)[C@H](CO)NC(=O)[C@@H](N)Cc1c[nH]cn1)C(C)C)[C@@H](C)O)[C@@H](C)O)C(C)C)C(=O)N[C@@H](CC(C)C)C(=O)N[C@@H](CC(N)=O)C(=O)NCC(=O)N[C@@H](CCCCN)C(=O)N[C@@H](CCCNC(=N)N)C(=O)O` [X=Leu Y=Lys-Arg-OH] (H-HSDAVFTDNYTRLRKQLAVKKYLNSILNGKR-OH), the “A: specific activity (%) obtained by method A (relaxation area value relative to VIP-NH2)” value is recorded as 410%.
To `CC[C@H](C)[C@H](NC(=O)[C@H](CO)NC(=O)[C@H](CC(N)=O)NC(=O)[C@H](CC(C)C)NC(=O)[C@H](Cc1ccc(O)cc1)NC(=O)[C@H](CCCCN)NC(=O)[C@H](CCCCN)NC(=O)[C@@H](NC(=O)[C@H](C)NC(=O)[C@H](CC(C)C)NC(=O)[C@H](CCC(N)=O)NC(=O)[C@H](CCCCN)NC(=O)[C@H](CCCNC(=N)N)NC(=O)[C@H](CC(C)C)NC(=O)[C@H](CCCNC(=N)N)NC(=O)[C@@H](NC(=O)[C@H](Cc1ccc(O)cc1)NC(=O)[C@H](CC(N)=O)NC(=O)[C@H](CC(=O)O)NC(=O)[C@@H](NC(=O)[C@H](Cc1ccccc1)NC(=O)[C@@H](NC(=O)[C@H](C)NC(=O)[C@H](CC(=O)O)NC(=O)[C@H](CO)NC(=O)[C@@H](N)Cc1c[nH]cn1)C(C)C)[C@@H](C)O)[C@@H](C)O)C(C)C)C(=O)N[C@@H](CC(C)C)C(=O)N[C@@H](CC(N)=O)C(=O)NCC(=O)N[C@@H](CCCCN)C(N)=O` [X=Leu Y=Lys-NH2] (H-HSDAVFTDNYTRLRKQLAVKKYLNSILNGK-NH2) belongs 300%; to `CC[C@H](C)[C@H](NC(=O)[C@H](CO)NC(=O)[C@H](CC(N)=O)NC(=O)[C@H](CC(C)C)NC(=O)[C@H](Cc1ccc(O)cc1)NC(=O)[C@H](CCCCN)NC(=O)[C@H](CCCCN)NC(=O)[C@@H](NC(=O)[C@H](C)NC(=O)[C@H](CC(C)C)NC(=O)[C@H](CCC(N)=O)NC(=O)[C@H](CCCCN)NC(=O)[C@H](CCCNC(=N)N)NC(=O)[C@H](CC(C)C)NC(=O)[C@H](CCCNC(=N)N)NC(=O)[C@@H](NC(=O)[C@H](Cc1ccc(O)cc1)NC(=O)[C@H](CC(N)=O)NC(=O)[C@H](CC(=O)O)NC(=O)[C@@H](NC(=O)[C@H](Cc1ccccc1)NC(=O)[C@@H](NC(=O)[C@H](C)NC(=O)[C@H](CC(=O)O)NC(=O)[C@H](CO)NC(=O)[C@@H](N)Cc1c[nH]cn1)C(C)C)[C@@H](C)O)[C@@H](C)O)C(C)C)C(=O)N[C@@H](CC(C)C)C(=O)N[C@@H](CC(N)=O)C(=O)NCC(=O)N[C@@H](CCCCN)C(=O)O` [X=Leu Y=Lys-OH] (H-HSDAVFTDNYTRLRKQLAVKKYLNSILNGK-OH), 410%.
In the case of `CC[C@H](C)[C@H](NC(=O)[C@H](CO)NC(=O)[C@H](CC(N)=O)NC(=O)[C@H](CC(C)C)NC(=O)[C@H](Cc1ccc(O)cc1)NC(=O)[C@H](CCCCN)NC(=O)[C@H](CCCCN)NC(=O)[C@@H](NC(=O)[C@H](C)NC(=O)[C@H](CCSC)NC(=O)[C@H](CCC(N)=O)NC(=O)[C@H](CCCCN)NC(=O)[C@H](CCCNC(=N)N)NC(=O)[C@H](CC(C)C)NC(=O)[C@H](CCCNC(=N)N)NC(=O)[C@@H](NC(=O)[C@H](Cc1ccc(O)cc1)NC(=O)[C@H](CC(N)=O)NC(=O)[C@H](CC(=O)O)NC(=O)[C@@H](NC(=O)[C@H](Cc1ccccc1)NC(=O)[C@@H](NC(=O)[C@H](C)NC(=O)[C@H](CC(=O)O)NC(=O)[C@H](CO)NC(=O)[C@@H](N)Cc1c[nH]cn1)C(C)C)[C@@H](C)O)[C@@H](C)O)C(C)C)C(=O)N[C@@H](CC(C)C)C(=O)N[C@@H](CC(N)=O)C(=O)NCC(=O)N[C@@H](CCCNC(=N)N)C(=O)O` [X=Met Y=Arg-OH], the “A: specific activity (%) obtained by method A (relaxation area value relative to VIP-NH2)” value came to 220%.
As to `CC[C@H](C)[C@H](NC(=O)[C@H](CO)NC(=O)[C@H](CC(N)=O)NC(=O)[C@H](CC(C)C)NC(=O)[C@H](Cc1ccc(O)cc1)NC(=O)[C@H](CCCCN)NC(=O)[C@H](CCCCN)NC(=O)[C@@H](NC(=O)[C@H](C)NC(=O)[C@H](CCSC)NC(=O)[C@H](CCC(N)=O)NC(=O)[C@H](CCCCN)NC(=O)[C@H](CCCNC(=N)N)NC(=O)[C@H](CC(C)C)NC(=O)[C@H](CCCNC(=N)N)NC(=O)[C@@H](NC(=O)[C@H](Cc1ccc(O)cc1)NC(=O)[C@H](CC(N)=O)NC(=O)[C@H](CC(=O)O)NC(=O)[C@@H](NC(=O)[C@H](Cc1ccccc1)NC(=O)[C@@H](NC(=O)[C@H](C)NC(=O)[C@H](CC(=O)O)NC(=O)[C@H](CO)NC(=O)[C@@H](N)Cc1c[nH]cn1)C(C)C)[C@@H](C)O)[C@@H](C)O)C(C)C)C(=O)N[C@@H](CC(C)C)C(=O)N[C@@H](CC(N)=O)C(=O)NCC(=O)N[C@@H](CCCCN)C(=O)N[C@@H](CCCNC(=N)N)C(=O)O` [X=Met Y=Lys-Arg-OH], the “A: specific activity (%) obtained by method A (relaxation area value relative to VIP-NH2)” value amounted to 460%.
The value for `CC[C@H](C)[C@H](NC(=O)[C@H](CO)NC(=O)[C@H](CC(N)=O)NC(=O)[C@H](CC(C)C)NC(=O)[C@H](Cc1ccc(O)cc1)NC(=O)[C@H](CCCCN)NC(=O)[C@H](CCCCN)NC(=O)[C@@H](NC(=O)[C@H](C)NC(=O)[C@H](CCSC)NC(=O)[C@H](CCC(N)=O)NC(=O)[C@H](CCCCN)NC(=O)[C@H](CCCNC(=N)N)NC(=O)[C@H](CC(C)C)NC(=O)[C@H](CCCNC(=N)N)NC(=O)[C@@H](NC(=O)[C@H](Cc1ccc(O)cc1)NC(=O)[C@H](CC(N)=O)NC(=O)[C@H](CC(=O)O)NC(=O)[C@@H](NC(=O)[C@H](Cc1ccccc1)NC(=O)[C@@H](NC(=O)[C@H](C)NC(=O)[C@H](CC(=O)O)NC(=O)[C@H](CO)NC(=O)[C@@H](N)Cc1c[nH]cn1)C(C)C)[C@@H](C)O)[C@@H](C)O)C(C)C)C(=O)N[C@@H](CC(C)C)C(=O)N[C@@H](CC(N)=O)C(=O)NCC(=O)N[C@@H](CCCCN)C(N)=O` [X=Met Y=Lys-NH2] was 140%; that for `CC[C@H](C)[C@H](NC(=O)[C@H](CO)NC(=O)[C@H](CC(N)=O)NC(=O)[C@H](CC(C)C)NC(=O)[C@H](Cc1ccc(O)cc1)NC(=O)[C@H](CCCCN)NC(=O)[C@H](CCCCN)NC(=O)[C@@H](NC(=O)[C@H](C)NC(=O)[C@H](CCSC)NC(=O)[C@H](CCC(N)=O)NC(=O)[C@H](CCCCN)NC(=O)[C@H](CCCNC(=N)N)NC(=O)[C@H](CC(C)C)NC(=O)[C@H](CCCNC(=N)N)NC(=O)[C@@H](NC(=O)[C@H](Cc1ccc(O)cc1)NC(=O)[C@H](CC(N)=O)NC(=O)[C@H](CC(=O)O)NC(=O)[C@@H](NC(=O)[C@H](Cc1ccccc1)NC(=O)[C@@H](NC(=O)[C@H](C)NC(=O)[C@H](CC(=O)O)NC(=O)[C@H](CO)NC(=O)[C@@H](N)Cc1c[nH]cn1)C(C)C)[C@@H](C)O)[C@@H](C)O)C(C)C)C(=O)N[C@@H](CC(C)C)C(=O)N[C@@H](CC(N)=O)C(=O)NCC(=O)N[C@@H](CCCCN)C(=O)O` [X=Met Y=Lys-OH] was 300%.
The value for `CC[C@H](C)[C@H](NC(=O)[C@H](CO)NC(=O)[C@H](CC(N)=O)NC(=O)[C@H](CC(C)C)NC(=O)[C@H](Cc1ccc(O)cc1)NC(=O)[C@H](CCCCN)NC(=O)[C@H](CCCCN)NC(=O)[C@@H](NC(=O)[C@H](C)NC(=O)[C@H](CCSC)NC(=O)[C@H](CCC(N)=O)NC(=O)[C@H](CCCCN)NC(=O)[C@H](CCCNC(=N)N)NC(=O)[C@H](CC(C)C)NC(=O)[C@H](CCCNC(=N)N)NC(=O)[C@@H](NC(=O)[C@H](Cc1ccc(O)cc1)NC(=O)[C@H](CC(N)=O)NC(=O)[C@H](CC(=O)O)NC(=O)[C@@H](NC(=O)[C@H](Cc1ccccc1)NC(=O)[C@@H](NC(=O)[C@H](C)NC(=O)[C@H](CC(=O)O)NC(=O)[C@H](CO)NC(=O)[C@@H](N)Cc1c[nH]cn1)C(C)C)[C@@H](C)O)[C@@H](C)O)C(C)C)C(=O)N[C@@H](CC(C)C)C(=O)N[C@@H](CC(N)=O)C(=O)NCC(=O)O` [X=Met Y=OH] was 70%.
